Source: PubChem BioAssay (NCI)
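All cell lines were grown in 96-well plates and treated with compound for 48 hours. TGI: concentration producing complete growth inhibition.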

Tests used:
Assay in all cases: inhibition of tumour cell growth, NCI panel, 48 h
[1] = test system: NCI/ADR-RES ovarian
[2] = test system: MDA-MB-231 breast
[3] = test system: PC-3 prostate
[4] = test system: NCI-H460 lung
[5] = test system: OVCAR-5 ovarian
[6] = test system: MDA-MB-435
[7] = test system: 786-0 renal
[8] = test system: OVCAR-4 ovarian
[9] = test system: MOLT-4 leukemia
[10] = test system: UO-31 renal
[11] = test system: KM12 colon
[12] = test system: SF-268 CNS
[13] = test system: NCI-H522 lung
[14] = test system: UACC-257 melanoma
[15] = test system: SR leukemia
[16] = test system: SK-OV-3 ovarian
[17] = test system: EKVX NSCLC
[18] = test system: SN12C renal
[19] = test system: HCT-15 colon
[20] = test system: HOP-62 NSCLC
[21] = test system: OVCAR-8 ovarian
[22] = test system: SK-MEL-28 melanoma
[23] = test system: COLO 205 colon
[24] = test system: LOX IMVI melanoma
[25] = test system: CCRF-CEM leukemia
[26] = test system: RPMI-8226 leukemia
[27] = test system: A549 NSCLC
[28] = test system: TK-10 renal
[29] = test system: SK-MEL-2 melanoma
[30] = test system: U251 CNS
[31] = test system: IGROV1 ovarian
[32] = test system: MALME-3M melanoma
[33] = test system: K-562 leukemia
[34] = test system: HT29 colon
[35] = test system: HOP-92 NSCLC
[36] = test system: RXF 393 renal
[37] = test system: MCF7 breast
[38] = test system: BT-549 breast
[39] = test system: M14 melanoma
[40] = test system: HCT-116 colon
[41] = test system: MDA-N
[42] = test system: SW-620 colon
[43] = test system: HS 578T breast
[44] = test system: UACC-62 melanoma
[45] = test system: NCI-H226 lung
[46] = test system: NCI-H23 lung
[47] = test system: A498 renal
[48] = test system: HL-60(TB) leukemia
[49] = test system: OVCAR-3 ovarian
[50] = test system: SF-539 CNS
[51] = test system: T-47D breast
[52] = test system: SK-MEL-5 melanoma
[53] = test system: SF-295 CNS
[54] = test system: ACHN renal
[55] = test system: DU-145 prostate
[56] = test system: SNB-75 CNS
[57] = test system: CAKI-1 renal
[58] = test system: SNB-19 CNS

For `COc1ccc(/C=C/c2cnc3ccccc3n2)cc1OC`, the TGI [1] was > 100 µM, the TGI [2] was > 100 µM and the TGI [3] was > 100 µM. The TGI [4] was > 100 µM, the TGI [5] was > 100 µM and the TGI [6] was > 100 µM. The TGI [7] was > 100 µM, the TGI [8] was > 100 µM and the TGI [9] was > 100 µM. The TGI [10] was > 100 µM, the TGI [11] was > 100 µM and the TGI [12] was > 100 µM. The TGI [13] was 69.5 µM, the TGI [14] was > 100 µM and the TGI [15] was > 100 µM. For the same compound, the TGI [16] was > 100 µM, the TGI [17] was > 100 µM and the TGI [18] was > 100 µM. The TGI [19] was > 100 µM, the TGI [20] was > 100 µM and the TGI [21] was > 100 µM. For the same compound, the TGI [22] was > 100 µM, the TGI [23] was > 100 µM and the TGI [24] was > 100 µM. For the same compound, the TGI [25] was > 100 µM, the TGI [26] was > 100 µM and the TGI [27] was > 100 µM. The TGI [28] was > 100 µM, the TGI [29] was > 100 µM and the TGI [30] was > 100 µM. The TGI [31] was > 100 µM, the TGI [32] was > 100 µM and the TGI [33] was > 100 µM. The TGI [34] was > 100 µM, the TGI [35] was > 100 µM and the TGI [36] was > 100 µM. For the same compound, the TGI [37] was > 100 µM, the TGI [38] was > 100 µM and the TGI [39] was > 100 µM. For the same compound, the TGI [40] was > 100 µM, the TGI [41] was > 100 µM and the TGI [42] was > 100 µM. For the same compound, the TGI [43] was > 100 µM, the TGI [44] was > 100 µM and the TGI [45] was > 100 µM. For the same compound, the TGI [46] was > 100 µM, the TGI [47] was > 100 µM and the TGI [48] was > 100 µM. The TGI [49] was > 100 µM, the TGI [50] was > 100 µM and the TGI [51] was > 100 µM. For the same compound, the TGI [52] was > 100 µM, the TGI [53] was > 100 µM and the TGI [54] was > 100 µM. For the same compound, the TGI [55] was > 100 µM, the TGI [56] was > 100 µM and the TGI [57] was > 100 µM.

In the case of `COc1ccc(C2NC(=O)Nc3c2c(=O)oc2c3ccc3ccccc32)cc1` (stereo not given), the TGI [1] is reported as > 100 µM, the TGI [2] is reported as > 100 µM and the TGI [3] is reported as > 100 µM. The TGI [4] was > 100 µM, the TGI [5] was > 100 µM and the TGI [6] was > 100 µM. For the same compound, the TGI [7] was > 100 µM, the TGI [8] was > 100 µM and the TGI [9] was > 100 µM. For the same compound, the TGI [10] was > 100 µM, the TGI [11] was > 100 µM and the TGI [12] was > 100 µM. For the same compound, the TGI [13] was > 100 µM, the TGI [14] was > 100 µM and the TGI [15] was > 100 µM. For the same compound, the TGI [16] was > 100 µM, the TGI [17] was 96.8 µM and the TGI [18] was > 100 µM. For the same compound, the TGI [19] was > 100 µM, the TGI [20] was > 100 µM and the TGI [21] was > 100 µM. The TGI [22] was > 100 µM, the TGI [23] was > 100 µM and the TGI [24] was > 100 µM. The TGI [25] was > 100 µM, the TGI [26] was > 100 µM and the TGI [27] was > 100 µM. The TGI [28] was > 100 µM, the TGI [29] was 82.8 µM and the TGI [30] was > 100 µM. For the same compound, the TGI [31] was > 100 µM, the TGI [32] was > 100 µM and the TGI [33] was > 100 µM. For the same compound, the TGI [34] was > 100 µM, the TGI [35] was > 100 µM and the TGI [36] was > 100 µM. For the same compound, the TGI [37] was > 100 µM, the TGI [38] was > 100 µM and the TGI [39] was > 100 µM. For the same compound, the TGI [40] was > 100 µM, the TGI [41] was > 100 µM and the TGI [42] was > 100 µM. For the same compound, the TGI [43] was > 100 µM, the TGI [44] was > 100 µM and the TGI [58] was > 100 µM. The TGI [45] was 96.9 µM, the TGI [46] was > 100 µM and the TGI [47] was > 100 µM. The TGI [48] was > 100 µM, the TGI [49] was > 100 µM and the TGI [50] was > 100 µM. The TGI [51] was > 100 µM, the TGI [52] was > 100 µM and the TGI [53] was > 100 µM. For the same compound, the TGI [54] was > 100 µM, the TGI [55] was > 100 µM and the TGI [56] was 75.8 µM. The TGI [57] was > 100 µM.
